Reference: ChEMBL document CHEMBL1155219, “Rapid generation of a high quality lead for transforming growth factor-beta (TGF-beta) type I receptor (ALK5)” (J Med Chem, 2009)

Tests used:
[1] = Octanol-phosphate buffered saline partition coefficient, log D at pH 7.4
[2] = molecular target: T1, TGF-beta receptor type-1 (Homo sapiens, UniProt P36897); experiment: Inhibition of 6His-tagged human ALK5 expressed in baculovirus-infected SF21 cells after 30 mins by fluorescence polarization assay
T1 sequence (P36897 whole entry): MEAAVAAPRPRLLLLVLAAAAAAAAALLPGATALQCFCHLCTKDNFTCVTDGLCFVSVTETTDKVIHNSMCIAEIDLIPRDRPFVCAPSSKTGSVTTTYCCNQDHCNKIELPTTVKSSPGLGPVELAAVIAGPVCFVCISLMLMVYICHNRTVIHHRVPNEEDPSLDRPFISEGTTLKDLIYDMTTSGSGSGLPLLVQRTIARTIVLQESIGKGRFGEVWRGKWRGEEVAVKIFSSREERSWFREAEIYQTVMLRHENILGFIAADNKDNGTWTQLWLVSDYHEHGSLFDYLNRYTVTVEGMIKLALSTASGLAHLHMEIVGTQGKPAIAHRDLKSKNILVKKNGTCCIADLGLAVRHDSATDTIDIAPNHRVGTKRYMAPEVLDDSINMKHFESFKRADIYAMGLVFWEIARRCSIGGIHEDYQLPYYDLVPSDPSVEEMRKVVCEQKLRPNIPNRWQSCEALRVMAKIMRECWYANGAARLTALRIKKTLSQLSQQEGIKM

[3] = molecular target: T1, TGF-beta receptor type-1; format: cell-based, MDA-MB-468
Description: Inhibition of ALK5 in human MDA-MB-468 cells assessed as inhibition of nuclear translocation of GFP-2/Smad2 fusion reporter gene after 90 mins by Hoechst 3342 staining-based cellomics arrayscan imaging analysis

[4] = in vivo; settings: Han Wistar, rat, po, 5 umol/kg
Description: Oral bioavailability in Han Wistar rat at 5 umol/kg

[5] = in vivo; settings: Han Wistar, rat, plasma, po, 5 umol/kg
Description: AUC in Han Wistar rat at 5 umol/kg, po

[6] = Clearance in Han Wistar rat at 5 umol/kg, po; settings: in vivo, iv
[7] = octanol/phosphate buffered saline

logD [1, 7]	IC50 [2] [nM]	IC50 [3] [nM]	logD ([1]; octanol/water)	bioavailability [4] [%]	AUC [5] [µM·h]	clearance [6] [mL/min/kg]	SMILES
3.4	12	31	–	–	–	–	Cc1cc(Oc2ccnc(Nc3ccc(C(=O)N(C)C)cc3)c2)c(-c2ccccn2)nc1C
2.3	21	27	–	20	0.47	–	Cc1cc(Oc2ccnc(Nc3ccc(S(N)(=O)=O)cc3)c2)c(-c2ccccn2)nc1C
–	–	–	2.5	75	4.95	12	Cc1ccc(Oc2ccnc(Nc3ccc(S(N)(=O)=O)cc3)c2)c(C)n1
3	–	21	–	21	0.34	–	COc1cc(Nc2cc(Oc3ccc(C)nc3C)ccn2)cc(OC)c1OC
3.2	129	63	–	–	–	–	Cc1cc(Oc2ccnc(Nc3ccc(F)cc3)c2)c(-c2ccccn2)nc1C

The next lines start with the compound.

SMILES	logD [1, 7]	IC50 [2] [nM]	IC50 [3] [nM]	logD ([1]; octanol/water)	bioavailability [4] [%]	AUC [5] [µM·h]	clearance [6] [mL/min/kg]
Cc1cc(Oc2ccnc(Nc3cccc(N4CCOCC4)c3)c2)c(-c2ccccn2)nc1C	3.3	–	–	–	–	–	–
COc1ccccc1Nc1cc(Oc2cc(C)c(C)nc2-c2ccccn2)ccn1	–	7	114	3.4	–	–	–
COc1cc(Nc2cc(Oc3cccnc3)ccn2)cc(OC)c1OC	2.7	227	> 5800	–	–	–	–
COc1cc(Nc2cc(Oc3ccc(C)nc3)ccn2)cc(OC)c1OC	–	108	282	3.2	–	–	–
Cc1cc(Oc2ccnc(Nc3ccc(N4CCOCC4)cc3)c2)c(-c2ccccn2)nc1C	2.6	–	–	–	–	–	–
Cc1cc(Oc2ccnc(Nc3ccccc3N3CCOCC3)c2)c(-c2ccccn2)nc1C	3.1	–	–	–	–	–	–
COc1cc(Nc2cc(Oc3cc(C)c(C)nc3-c3ccccn3)ccn2)cc(OC)c1OC	–	–	–	–	4	–	–
COc1cc(Nc2cc(Oc3ccc(C)nc3-c3ccccn3)ccn2)cc(OC)c1OC	3.4	13	20	–	–	–	–
COc1cc(Nc2cc(Oc3cccnc3C)ccn2)cc(OC)c1OC	–	107	628	–	–	–	–
